Source: PMC4880976, “Pharmacologic rationale for the NK1R antagonist, aprepitant as adjunctive therapy in HIV” (Journal of Translational Medicine, 2016)

What was measured:
[1] = tested on: CD163 cleavage in human monocytes; test: sCD163 release from human monocytes, ELISA; format: cell-based; conditions: aprepitant 10 μM 30 min before SP 5 μM 60 min, p = 0.004
Protocol: sCD163 was measured by ELISA (Trillium Diagnostics, Brewer, Maine, USA) according to manufacturer’s recommendations.
Fig. 7 SP induces cleavage of CD163 in monocytes. sCD163 was measured by ELISA in the supernatant of freshly isolated human monocytes treated with SP and aprepitant as indicated. a Time course of cells treated with varying doses of SP as indicated. *p < 0.001 control versus 5 and 10 μM of SP. b Cells were pre-incubated with aprepitant (10 μM) for 30 min and then treated with SP (5 μM) for 60 min. *p < 0.001 SP versus control, p = 0.004 SP versus SP + aprepitant. Results are presented as mean ± SD from three independent experiments

anxiety-related behavior = test: Anxiety-related behavior in SIV infected rhesus macaque (video recordings); format: in vivo; conditions: 125 mg/day
Protocol: Blood was collected for PK sampling on days 1, 7 and 14 and trough samples were collected prior to dosing on days 3, 5, 7, 11 and 13. […] Videotaped recordings were analyzed using Observer XT® (Noldus IT). Animals were sacrificed and necropsied after 1 year.
Fig. 4 Anxiety-related behavior* time course in SIV infected rhesus macaque receiving aprepitant at 125 mg/day or placebo. *Anxiety-related behavior was calculated based on the following parameters: body shake, hypervigilant scanning, self-licking and self-grooming, scratching, unresponsive inactivity and yawning.

human PBMC = test: SP dependent cytokine and chemokine production by PBMC, multiplex assay; format: cell-based; conditions: aprepitant 10 µM with SP 10 µM, 24 h
Protocol: For cytokine and PD-1 assessment experiments freshly isolated peripheral blood mononuclear cell (PBMC) purchased from the Human Immunology Core Facility of The University of Pennsylvania School of Medicine (Philadelphia, PA) were cultured in RPMI medium supplemented with 10 % FBS overnight. Some cultures were treated with SP (10 µM) aprepitant (10 µM) or DMSO (0.001 %, vehicle for aprepitant). Cytokine concentrations were measured in supernatants using multiplex assay 24 h after SP/aprepitant treatment (see below). For PD-1 expression SP and aprepitant were added at day 0 and PD-1 expression was monitored daily for up to 8 days using flow cytometry.
Concentrations of pro-inflammatory cytokines and chemokines in supernatants of human PBMC were measured using human Cytokine/Chemokine Magnetic Bead Panel—Premixed 30 Plex, HCYTMAG-60K-PX30 (Millipore, Billerica, MA, USA) as recommended by the manufacturers.
Fig. 5 SP dependent up regulation of cytokine and chemokine production by human PBMC* is inhibited by aprepitant. *Freshly isolated PBMC from normal donors were incubated for 24 h with SP and/or Aprepitant (10 µM each) as indicated. Control cultures were either left untreated of incubated with DMSO (vehicle for aprepitant). Pro-inflammatory markers were measured in supernatants using MILLIPORE Human Cytokine/Chemokine Magnetic Bead Panel.

NK1R = tested on: NK1R; parameters: method as in PMID 12562139, PMID 15121485; conditions: 165 mg dose, PET; cited from earlier work
[2] = 1 μM in DMEM 10 % FBS or MDM cultures, days 0-7
Protocol: A validated, liquid chromatography-tandem mass spectrometry method was used for the quantification of aprepitant plasma concentration in HIV infected animals and tissue culture media. The method utilized a simple sample-preparation procedure of protein precipitation with methanol. Chromatographic separation was performed on a reversed phase C8 column (Hypersil Gold, 50 mm × 2.1 mm, 3 μm) using a mobile phase composed of acetonitrile and water in 0.5 % formic acid through gradient elution. Electro-spray ionization in positive mode was incorporated in the tandem mass spectrometric detection. The lower limit of quantitation of aprepitant in human plasma was 1 ng/mL.
GAG expression in control (non-treated) cultures were designated as 100 %; *p < 0.0001 between all groups including control were obtained through one-way ANOVA with post-test analysis by Bonferroni’s Multiple Comparison Test indicating significant difference between all groups in pair wise comparison. b Aprepitant added to DMEM 10 % FBS media or MDM cultures at a concentration of 1 μM (0.53 μg/ml) on day 0 and measured on days 0, 1, 2, 3 and 7. Results are presented as mean ± SD for three independent experiments

[3] = parameters: species or system Rhesus macaques; conditions: rhesus monkey, in vivo
Protocol: For infectivity studies, eight male rhesus macaques were used. Animals were infected intravenously with 50 ng p27 of SIV. […] Aprepitant (commercial capsule contents) was mixed and co-administered with various food preparations to ensure dosing compliance. Food preparations included peanut butter, marshmallow cream and honey, disguised in non-citrus fruit. While formal stability and delivery experiments were not conducted, pilot bioavailability studies confirmed the robustness of aprepitant exposures following food co-administration. The improved bioavailability with food-based dosing in conjunction with oral aprepitant is consistent with preclinical experiments which project simulated exposures based on the commercial nanosized aprepitant formulation. In this evaluation, in silico model predictions were similar to observed in vivo pharmacokinetic data in the fed state; other studies have shown the benefit of complexation strategies to enhance aprepitant solubility/dissolution [30, 31]. […] Videotaped recordings were analyzed using Observer XT® (Noldus IT). Animals were sacrificed and necropsied after 1 year.

SIVmac251 = test: SIV infectivity study, plasma viral load; format: in vivo, rhesus macaques (Macaca mulatta)
Protocol: For infectivity studies, eight male rhesus macaques were used. Animals were infected intravenously with 50 ng p27 of SIV. Following infection four animals were treated with aprepitant once daily dosing of 125 mg aprepitant administered orally for a year and four infected animals were left untreated. Aprepitant (commercial capsule contents) was mixed and co-administered with various food preparations to ensure dosing compliance. Food preparations included peanut butter, marshmallow cream and honey, disguised in non-citrus fruit. While formal stability and delivery experiments were not conducted, pilot bioavailability studies confirmed the robustness of aprepitant exposures following food co-administration. The improved bioavailability with food-based dosing in conjunction with oral aprepitant is consistent with preclinical experiments which project simulated exposures based on the commercial nanosized aprepitant formulation. In this evaluation, in silico model predictions were similar to observed in vivo pharmacokinetic data in the fed state; other studies have shown the benefit of complexation strategies to enhance aprepitant solubility/dissolution [30, 31].
Blood was collected for PK sampling on days 1, 7 and 14 and trough samples were collected prior to dosing on days 3, 5, 7, 11 and 13. […] Videotaped recordings were analyzed using Observer XT® (Noldus IT). […]

in vivo = conditions: male, rhesus monkey
Protocol: A pilot study in two groups of three male Rhesus macaques (Macaca mulatta) was conducted to assess the exposure attained following once daily dosing of 80 and 125 mg aprepitant administered orally for 14 days (n = 3 per dose group). The 80 and 125 mg doses correlate with the human doses recommended for CINV patients (125 mg orally 1 h prior to chemotherapy treatment (day 1) and 80 mg orally once daily in the morning on days 2 and 3). On a weight basis these doses represent approximately 8 and 12.5 mg/kg (weight range, 7–12 kg for the rhesus) compared to 1.14 and 1.79 mg/kg human doses (assuming a 70 kg person). […] Blood was collected for dense PK sampling on days 1, 7 and 14 and trough samples were collected prior to dosing on days 3, 5, 7, 11 and 13.
Blood was collected for PK sampling on days 1, 7 and 14 and trough samples were collected prior to dosing on days 3, 5, 7, 11 and 13. Viral loads were assessed at 2 and 4 weeks after infection and monthly thereafter. […] Behavioral data were collected using video cameras installed on walls opposite the caging. Videotaping was scheduled to avoid disruptions in daily feedings, routine husbandry and research procedures. Data were collected pre-infection, 2 and 4 weeks post-infection and monthly thereafter. Videotaped recordings were analyzed using Observer XT® (Noldus IT). Animals were sacrificed and necropsied after 1 year.

C[C@@H](O[C@H]1OCCN(Cc2n[nH]c(=O)[nH]2)[C@H]1c1ccc(F)cc1)c1cc(C(F)(F)F)cc(C(F)(F)F)c1 [aprepitant]
effect on SP induced sCD163 release [1]: inhibited
anxiety-related behavior versus control (anxiety-related behavior; after first 4 weeks (weeks 12-20)): significant reduction of anxiety
anxiety-related behavior versus control (anxiety-related behavior; first 4 weeks after infection): no significant difference
effect on SP induced cytokine and chemokine production (human PBMC): blocked
receptor occupancy (NK1R): 97–99%
degradation in culture media [2]: little or no degradation
systemic and neuropathology, treated versus untreated [3]: no differences
reduction of viral load (SIVmac251; 125 mg once daily oral for 12 months, SIV-infected rhesus, weeks 12-52): approximately tenfold
reduction in plasma levels of viral RNA versus non-treated controls (SIVmac251; 125 mg/day oral, 3–12 month observation period): 1 log
Kp (in vivo): 0.0005 to 0.008
decline in trough exposure between days 13 and 14 (extent of induction) (in vivo): approximately 32.5%
trough plasma concentration reaches steady state (in vivo): ≤ 10 days
